In patent publication US9309187B2, “EP2 receptor agonists” (TAKEDA GMBH, priority 2012, dated 2016):
Where two headings read alike, the source gives them in different places.

Legend:
[1] = molecular target: T1, human prostanoid receptor EP2 (Homo sapiens, UniProt P43116); test: EP2 cAMP release assay in CHOp6CreLuc-huEP2 cells (CRE-luciferase readout); assay type: cell-based
T1 construct: expressed in transfected cells; host or cells: CHO-K1 (CHOp6CreLuc-huEP2)
Description: Method for Measuring cAMP Release in Human EP2 Stably Transfectant Cells:
The potency and efficacy of EP2 agonists have been determined via measuring cAMP release in stably transfectant CHO-K1 cell expressing the human prostanoid receptor EP2 and luciferase enzyme regulated via a 6 times CRE (cAMP response element) containing transcriptional promoter. CHOp6CreLuc-huEP2 cells were seeded into 384-well plate (1000 cells per well) in DMEM/F12 (Dulbecco's Modified Eagle Medium/Nutrient Mixture F12) cell culture medium containing 2% FCS (Fetal Calf Serum) and 500 μg/ml G418 24 hours prior to the experiment. Test compound was added as serial dilutions while keeping the final DMSO concentration constant in each well. […] Cells were incubated together with test compound or butaprost for 4 hours at 37° C. The cAMP release was determined indirectly via luciferase activity that directly correlated to the amount of luciferase enzyme expressed in response to cAMP regulated promoter activity. The luciferase activity was determined by addition of luciferin containing buffer and subsequent quantification of resulting luminescence. Each sample was measured in quadruplicates per experiment and half-maximal effective concentration (EC50) and relative maximal effect compared to butaprost was determined from 3 independent experiments with GraphPad Prism Software. A compound that achieved over 80% of the maximal effect of butaprost was considered as full agonist.
For the following compounds the potency was determined in the cAMP release assay applying human EP2 transfectant CHOp6CreLuc-huEP2 cells. […] The numbers of the compounds correspond to the examples numbers.
EP2 cAMP Release Assay: pEC50

[2] = system: TNFalpha release in human peripheral blood mononuclear cells (PBMC) stimulated with LPS; test: Inhibition of LPS induced TNFalpha release in human PBMCs; assay type: cell-based; conditions: 1 ng/mL LPS, 24 hours, reported as range bins, read-out: Inhibition of LPS induced TNFalpha release in human PBMCs pIC30 (-log IC30)
Description: Method for Measuring the Inhibition of TNFalpha Release in Human Peripheral Blood MononuClear Cells (PBMC) Stimulated with LPS:
Assay was performed with some modifications of the method described by Hatzelmann and Schudt (Hatzelmann and Schudt 2001, J. Pharmacol. Exp. Therapeutics 297: 267-279) and the protocol “drawing of venous blood from healthy volunteers for in vitro studies” was approved by the ethics committee of the Landesärztekammer Baden Württemberg in Stuttgart. Peripheral blood mononuclear cells (PBMCs) were isolated from venous blood with the anticoagulant citrate from healthy donors according to standard protocols using Ficoll. The cell layer of PBMCs were washed twice with phosphate buffer solution and equilibrated at room temperature for 60 minutes. 500,000 PBMCs in 180 microL RPMI1640 cell medium supplemented with 10% FCS, NEAA (Non-essential-amino-acids), L-Glutamine and Sodium Pyruvate per sample were pre-incubated with 10 microL of a serial dilution of test compound or piclamilast as positive control for 60 min. at 37° C. After pre-incubation blood samples were stimulated by the addition of 10 microL LPS (Sigma, Aldrich) per sample resulting in a final concentration of 1 ng/mL LPS and a final volume of 200 microL. Cells were incubated for 24 hours at 37° C. TNFalpha levels were determined from cell supernatant that was obtained by a centrifugation step and transferring the supernatant to a new 96-well plate. Content of TNFalpha was determined via alphaLISA Technology according to manufacture protocol (Perkin Elmer).
(§1) PBMC samples that were not stimulated with LPS were used as control and set for 100% inhibition. PBMC samples that were stimulated with LPS and solvent instead of test compound were set as 0% inhibition. Percent inhibition was calculated based on these controls for each sample and since most compounds achieved saturating maximal inhibition of 60% a pIC30 value was calculated with GraphPad Prism Software.
For the following compounds the inhibitory values of TNFalpha release [determined as −log IC30=pIC30] in human PBMCs between 5.0 and 5.9, between 6.0 and 6.9, between 7.0 and 7.9 and between 8.0 and 9.0 have been determined. The numbers of the compounds correspond to the examples numbers.
Inhibition of LPS Induced TNFalpha Release Assay in Human PBMCs: pIC30

human EP2 receptor = molecular target: T2, human EP2 receptor (Homo sapiens, UniProt P43116); test: EP2 binding assay (PGE2 displacement)
T2 construct: purchased Millipore
Description: Method for Measuring Inhibition of PGE2 Binding to the Human Prostanoid Receptor EP2:
Human EP2 receptor equilibrium competition binding assays were performed according to Abramovitz et al. (M. Abramovitz et al. 2000, Biochimica et Biophysica Acta 1483: 285-293) in a final incubation volume of 100 microL in 50 milliM Bis-Tris, pH6.0 in 96-well plates. Radiolabelled Prostaglandin E2 (PGE2) (1 nanoM [^3H]-PGE2 purchased from Perkin Elmer) was added to the assay as competitive ligand. Test compounds stored as Dimethylsulfoxide (DMSO) stock solutions were added to the assay in serial dilutions in assay buffer while keeping the final DMSO concentration equal in each sample. The reaction was initiated by addition of membrane proteins harbouring human EP2 receptor (ChemiSCREEN™ membrane preparation recombinant human EP2 prostanoid receptor that was purchased by Millipore). Total binding was determined in the absence of test compound or PGE2 and non-specific binding was determined in the presence of 1 microM PGE2. Incubations were conducted for 60 minutes at room temperature until equilibrium was reached and terminated by filtration through GF/B filter (Perkin Elmer) prewetted with 0.3% PEI solution. Unbound radiolabelled PGE2 was removed by 8 wash cycles with the same buffer under ice-cold conditions and the filters containing the residual radioactivity were dried for 60 minutes at 60° C. In order to measure the filter bound radioactivity, 40 microL microscint (scintillation liquid) was added to each filter and the chemiluminescence was determined by TopCount-NTX™. The specific binding was calculated by subtracting non-specific binding from each sample. Percent inhibition by test compounds was calculated based on specific binding without test compound. Each sample was measured in triplicates per experiment and for the calculation of the pIC50 at least 2 independent experiments were performed. Determination of half maximal inhibiting concentration (IC50) was performed with GraphPad Prism Software.
The numbers of the compounds correspond to the examples numbers.
EP2 Binding Assay (PGE2 Displacement): pIC50 Values

[3] = system: TNFalpha release in human whole blood stimulated with LPS; test: Inhibition of LPS induced TNFalpha release in human whole blood; assay type: cell-based; conditions: 1 microg/mL LPS, 4 hours, reported as range bins, read-out: Inhibition of LPS induced TNFalpha release in human whole blood pIC30 (-log IC30)
Description: Method for Measuring the Inhibition of TNFalpha Release in Human Whole Blood Stimulated with LPS:
Assay was performed with some modifications of the method described by Hatzelmann and Schudt (Hatzelmann and Schudt (2001) JPET 297: 267-279) and the protocol “drawing of venous blood from healthy volunteers for in vitro studies” was approved by the ethics committee of the Landesärztekammer Baden Württemberg in Stuttgart.
Heparinised venous blood was equilibrated to assay conditions for 1 hour at room temperature upon blood drawing. Immediately thereafter, 200 microL whole blood per sample were pre-incubated with 25 microL of a serial dilution of test compound or piclamilast as positive control for 30 min. at 37° C. After pre-incubation blood samples were stimulated by the addition of 25 microL lipopolysaccharide (LPS) (Sigma, Aldrich) per sample resulting in a final concentration of 1 microg/mL LPS and a final volume of 250 microL. Cells were incubated for 4 hours at 37° C. TNFalpha levels were determined from plasma that was obtained by a centrifugation step and transferring the supernatant to a new 96-well plate which was again centrifuged and clear plasma supernatant was used for the measurement of TNFalpha via alphaLISA Technology according to manufacture protocol (Perkin Elmer).
as §1, with “Whole blood” for “PBMC”
For the following compounds the inhibitory values of TNFalpha release [determined as −log IC30=pIC30] in the human whole blood assay between 4.5 and 4.9, between 5.0 and 5.9 and between 6.0 and 6.9 have been determined. The numbers of the compounds correspond to the examples numbers.
Inhibition of LPS Induced TNFalpha Release Assay in Human Whole Blood: pIC30

[4] = CHOp6CreLuc-huEP2 cells, 4 hours at 37° C., reported as range bins, read-out: EP2 cAMP release assay pEC50 (-log EC50) (converted)
[5] = recombinant human EP2 membranes, 1 nanoM [3H]-PGE2, reported as range bins, read-out: EP2 binding (PGE2 displacement) pIC50 (-log IC50) (converted)

T1 sequence (P43116 whole entry): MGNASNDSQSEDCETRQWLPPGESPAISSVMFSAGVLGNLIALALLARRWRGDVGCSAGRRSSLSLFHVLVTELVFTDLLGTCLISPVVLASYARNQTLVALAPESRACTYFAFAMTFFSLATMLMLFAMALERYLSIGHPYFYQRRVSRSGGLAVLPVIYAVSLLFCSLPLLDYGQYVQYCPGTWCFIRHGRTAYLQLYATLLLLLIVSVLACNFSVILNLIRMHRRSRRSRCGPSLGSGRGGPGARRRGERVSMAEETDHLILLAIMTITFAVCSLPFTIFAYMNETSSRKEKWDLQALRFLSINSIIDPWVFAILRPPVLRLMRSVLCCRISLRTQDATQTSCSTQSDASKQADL
T2 sequence (P43116 whole entry): as above

Row | Compound | EC50 [1, 4] [nM] | IC30 [2] [nM] | IC50 (human EP2 receptor; [5]) [nM] | IC30 [3] [nM] | EC50 [1] [nM] | IC50 (human EP2 receptor) [nM] | maximal effect of positive control relative to PGE2 ([1]; CHOp6CreLuc-huEP2 cells)
1 | O=C(O)COc1cccc(NC(=O)c2cc(-c3ccccc3)cc3ccccc23)c1 [Example 4] | 0.126 to 1 | 126 to 1000 | 1.26 to 10 | 12600 to 31600 |  |  | 
2 | O=C(O)COc1ccc(F)c(NC(=O)c2cc(-c3ccccc3)cc3ccccc23)c1 [Example 5, (4-fluoro-3-{[(3-phenylnaphthalen-1-yl)carbonyl]amino}phenoxy)acetic acid] | 0.00631 to 0.1 |  | 1.26 to 10 |  |  |  | 
3 | O=C(O)COc1ccc(Cl)c(NC(=O)c2cc(-c3ccccc3)cc3ccccc23)c1 [Example 6] | 0.00631 to 0.1 |  | 12.6 to 100 |  |  |  | 
4 | O=C(O)CCc1cccc(NC(=O)c2cc(-c3ccccc3)cc3ccccc23)c1 [Example 7, 3-(3-{[(3-phenylnaphthalen-1-yl)carbonyl]amino}phenyl) propanoic acid] | 0.126 to 1 | 126 to 1000 | 12.6 to 100 |  |  |  | 
5 | O=C(O)CCc1ccc(F)c(NC(=O)c2cc(-c3ccccc3)cc3ccccc23)c1 [Example 8, 3-(4-fluoro-3-{[(3-phenylnaphthalen-1-yl)carbonyl]amino}phenyl) propanoic acid] | 0.126 to 1 | 126 to 1000 | 12.6 to 100 |  |  |  | 
6 | O=C(O)/C=C/c1ccc(F)c(NC(=O)c2cc(-c3ccc(F)cc3)cc3ccccc23)c1 [Example 11, (2E)-3-{3-[({3-[4-fluorophenyl]naphthalen-1-yl}carbonyl)amino]-4fluorophenyl}prop-2-enoic acid] | 0.126 to 1 |  | 1.26 to 10 |  |  |  | 
7 | O=C(O)/C=C/c1ccc(F)c(NC(=O)c2cc(-c3ccccc3CO)cc3ccccc23)c1 [Example 13, (2E)-3-{4-fluoro-3-[({3-[2-(hydroxymethyl)phenyl]naphthalen-1-yl}carbonyl)amino]phenyl}prop-2-enoic acid] | 0.126 to 1 | 126 to 1000 | 1.26 to 10 | 126 to 1000 |  |  | 
8 | O=C(O)/C=C/c1ccc(F)c(NC(=O)c2cc(-c3cccc(CO)c3)cc3ccccc23)c1 [Example 14, (2E)-3-{4-fluoro-3-[({3-[3-(hydroxymethyl)phenyl]naphthalen-1-yl}carbonyl)amino]phenyl}prop-2-enoic acid] | 0.126 to 1 | 126 to 1000 | 1.26 to 10 |  |  |  | 
9 | O=C(O)/C=C/c1ccc(F)c(NC(=O)c2cc(-c3cc(O)cc(F)c3)cc3ccccc23)c1 [Example 15, (2E)-3-[4-fluoro-3-({[3-(3-fluoro-5-hydroxyphenyl)naphthalen-1yl]carbonyl}amino)phenyl]prop-2-enoic acid] | 0.00631 to 0.1 | 1 to 10 | 1.26 to 10 | 1260 to 10000 |  |  | 
10 | O=C(O)CCc1ccc(F)c(NC(=O)c2cc(-c3ccccc3F)cc3ccccc23)c1 [Example 16, 3-[4-fluoro-3-({[3-(2-fluorophenyl)naphthalen-1yl]carbonyl}amino)phenyl]-propanoicacid] | 1.26 to 12.6 | 126 to 1000 | 12.6 to 100 |  |  |  | 
11 | O=C(O)CCc1ccc(F)c(NC(=O)c2cc(-c3cccc(F)c3)cc3ccccc23)c1 [Example 17, 3-[4-fluoro-3-({[3-(3-fluorophenyl)naphthalen-1-yl]carbonyl}amino)phenyl]propanoic acid] | 0.126 to 1 | 126 to 1000 | 1.26 to 10 |  |  |  | 
12 | CC(=O)NCc1cccc(-c2cc(C(=O)Nc3cc(/C=C/C(=O)O)ccc3F)c3ccccc3c2)c1 [Example 18] | 1.26 to 12.6 | 1260 to 10000 |  |  |  |  | 
13 | O=C(O)/C=C/c1cccc(NC(=O)c2cc(-c3cccc(N4CCNCC4)c3)cc3ccccc23)c1 [Example 20, (2E)-3-{3[({3-[3-(piperazin-1-yl)phenyl]naphthalen-1-yl}carbonyl)amino]phenyl}prop-2-enoic acid] | 1.26 to 12.6 |  | 126 to 2000 |  |  |  | 
14 | O=C(O)/C=C/c1cccc(NC(=O)c2cc(N3CCOCC3)cc3ccccc23)c1 [Example 21, (2E)-3-[3-({[3-(morpholin-4-yl)naphthalen-1-yl]carbonyl}amino)phenyl]prop-2-enoic acid] | 1.26 to 12.6 | 126 to 1000 | 126 to 2000 |  |  |  | 
15 | CN(C)C(=O)Oc1cccc(-c2cc(C(=O)Nc3cccc(/C=C/C(=O)O)c3)c3ccccc3c2)c1 [Example 23, (2E)-3-(3-{[(3-{3-[(dimethylcarbamoyl)oxy]phenyl}naphthalen-1-yl)carbonyl]amino}phenyl)prop-2-enoic acid] |  | 126 to 1000 |  |  | 1.26 to 12.6 | 126 to 2000 | 
16 | CCCC1([C@H](O)C/C=C/[C@H]2[C@H](O)CC(=O)[C@@H]2CCCCCCC(=O)OC)CCC1 [butaprost, reference compound] |  |  |  |  |  |  | same maximal effect compared to the maximal effect of PGE2
